Laboratory results: patent US11111234B2, “Salt of a quinazoline derivative-like tyrosine kinase inhibitor and crystal form thereof” (Xuanzhu Pharma Co., Ltd., priority 2016, dated 2021)
Structures can show the parent of a compound that is named as a salt.

Key:
Format in all cases: physicochemical
[1] = Study on hygroscopicity (pharmaceutical hygroscopicity test, General Rule 9103 ChP 2015)
Procedure: measurement was performed in accordance with the Guidelines for pharmaceutical hygroscopicity test in General Rule 9103 of Pharmacopoeia of the People's Republic of China (2015) Volume IV.

[2] = Study on solubility (HPLC)
Procedure: measurement was performed in accordance with High Performance Liquid Chromatography in Appendix II V D in Pharmacopoeia of the People's Republic of China (2010) Volume II.

[3] = Study on stability (high temperature, high moisture, light; purity by HPLC and XRD); conditions: for XRD: compared with the XRD pattern at Day 0
Procedure: The Crystal form A of the maleate of the compound of Formula (1) and the hydrochloride of the compound of Formula (1) were kept at 70° C. for 3 d, and the samples were taken at Day 1 and Day 3, respectively, and were tested for purity and XRD, which were compared with those of the sample at Day 0.
The Crystal form A of the maleate of the compound of Formula (1) was kept under conditions of high moisture (25° C., RH92.5%) for 5 d, or under condition of light (4500LX±500LX) for 10 d, and was tested for purity and XRD, which were compared with those of the sample at Day 0.
Purity measurement: measurement was performed in accordance with High Performance Liquid Chromatography in Appendix II V D in Pharmacopoeia of the People's Republic of China (2010) Volume II.
XRD test: the same as described in Example 1.

**Q.** Which “Hygroscopic weight gain(%)” value [1] does the source give for `COc1cc2ncnc(Nc3ccc(F)c(Cl)c3)c2cc1NC(=O)/C=C/CN1CC2(CCC2)C1` [Crystal form A of the maleate of the compound of Formula (1)] [(E)-N-(4-((3-chloro-4-fluorophenyl)amino)-7-methoxylquinazolin-6-yl)-4-(2-azaspiro[3.3]heptan-2-yl)-2-butenamide] here?
**A.** Its value is 0.07%.

**Q.** What about the Hygroscopicity result [1] of the same compound?
**A.** The Hygroscopicity result was “No or almost no”.

**Q.** What about the “hygroscopicity compared with the hydrochloride” value [1] of the same compound?
**A.** The value was “lower hygroscopicity”.

**Q.** And the solubility ([2]; H2O)?
**A.** The solubility was 4411.5 µg/mL.

**Q.** And the solubility ([2]; pH of solution 1.0)?
**A.** Its solubility is 20277.8 µg/mL.

**Q.** And the solubility ([2]; pH of solution 4.5)?
**A.** The solubility was 9748.4 µg/mL.

**Q.** What about the solubility ([2]; pH of solution 6.5) of the same compound?
**A.** Its solubility is 89.1 µg/mL.

**Q.** What about the solubility ([2]; pH of solution 7.4) of the same compound?
**A.** The solubility was 68.9 µg/mL.

**Q.** And the “solubility compared with the hydrochloride” value ([2]; under various pH conditions)?
**A.** The value was “higher solubility”.

**Q.** And the “purity (%)” value ([3]; 25° C., RH92.5%, standing time 0 d)?
**A.** The value was 98.6%.

**Q.** What about the “purity (%)” value ([3]; 25° C., RH92.5%, standing time 5 d) of the same compound?
**A.** Its value is 98.4%.

**Q.** And the XRD ([3]; 70° C., 1 d)?
**A.** Its XRD is “the same as”.

**Q.** And the XRD ([3]; 70° C., 3 d)?
**A.** Its XRD is “the same as”.

**Q.** What about the “purity (%)” value ([3]; 70° C., standing time 0 d) of the same compound?
**A.** The value was 98.4%.

**Q.** What about the “purity (%)” value ([3]; 70° C., standing time 1 d) of the same compound?
**A.** The value was 98.0%.

**Q.** And the “purity (%)” value ([3]; 70° C., standing time 3 d)?
**A.** The value was 97.4%.

**Q.** And the XRD ([3]; light 4500LX ± 500LX, 10 d)?
**A.** Its XRD is “the same as”.

**Q.** And the “purity (%)” value ([3]; light 4500LX ± 500LX, standing time 0 d)?
**A.** The value was 98.6%.

**Q.** What about the “purity (%)” value ([3]; light 4500LX ± 500LX, standing time 10 d) of the same compound?
**A.** Its value is 98.4%.

**Q.** What about the change in purity ([3]; light (4500LX±500LX) 10 d, high moisture (25° C., RH92.5%) 5 d, or high temperature (70° C.) 3 d) of the same compound?
**A.** The change in purity was “No apparent change in purity”.

**Q.** With `COc1cc2ncnc(Nc3ccc(F)c(Cl)c3)c2cc1NC(=O)/C=C/CN1CC2(CCC2)C1` [Hydrochloride of the compound of Formula (1)] [(E)-N-(4-((3-chloro-4-fluorophenyl)amino)-7-methoxylquinazolin-6-yl)-4-(2-azaspiro[3.3]heptan-2-yl)-2-butenamide] as the compound, how does the “Hygroscopic weight gain(%)” value [1] read?
**A.** The value was 7.8%.

**Q.** What about the solubility ([2]; H2O) of the same compound?
**A.** Its solubility is 2200.6 µg/mL.

**Q.** And the solubility ([2]; pH of solution 1.0)?
**A.** Its solubility is 3255.8 µg/mL.

**Q.** And the solubility ([2]; pH of solution 4.5)?
**A.** Its solubility is 1883.0 µg/mL.

**Q.** And the solubility ([2]; pH of solution 6.5)?
**A.** Its solubility is 17.6 µg/mL.

**Q.** And the solubility ([2]; pH of solution 7.4)?
**A.** The solubility was 11.2 µg/mL.

**Q.** What about the “purity (%)” value ([3]; 70° C., standing time 0 d) of the same compound?
**A.** Its value is 98.4%.

**Q.** What about the “purity (%)” value ([3]; 70° C., standing time 1 d) of the same compound?
**A.** The value was 92.5%.

**Q.** What about the “purity (%)” value ([3]; 70° C., standing time 3 d) of the same compound?
**A.** The value was 89.0%.

**Q.** What about the decrease in purity ([3]; high temperature (70° C.) for 3 d) of the same compound?
**A.** The decrease in purity was 9.4%.
